Data taken from patent US20060217447A1, “Wood preservative formulations comprising dichlorophen” (priority 2005, published 2006).
“And” between values parts separate entries of the source, which are not always exact repeats. Identical values can stand only once.

Tested on: decay organisms
Test: Soil contact veneer exposure test: dip-treated Scots pine sapwood veneers in damp compost, pulled by hand weekly until failure
Conditions: for Half life for fungicide at 2% ai / Half life for fungicide at 2% active ingredient (ai): 2% single biocide; for Half life for fungicide at 2% active ingredient (ai): Example 3; for average time for failure to occur, Quat Only: 0.36% active quaternary ammonium compound in deionised water
Source text: The present invention also provides a simple exposure test for evaluating the wood preserving abilities of candidate ingredients or compositions. This exposure test is based on the premise that small dimension timber test specimens tend to fail more quickly than larger ones in soil contact situations.
It is preferable that the thickness of the veneers be greater than 0.1 mm, as veneers of lesser thickness can often be pulled apart by hand without undergoing exposure to decay organisms. Veneers which are thicker than 0.4 may take an excessive amount of time to fail the exposure test. In one embodiment, the thickness of the veneers is about 0.2 mm and the wood is the sapwood of the Scots pine (Pinus sylvestris). Other woods and thicknesses can be used. […] An example of convenient width and length dimensions are 15×50 mm. However, width and length are not critical provided they are kept consistent within a test, although very large or small length or width dimensions may be difficult to handle.
Accordingly, the test of the present invention comprises testing the integrity of a veneer after exposure to a decay-inducing environment. In one embodiment, this environment is damp compost in which decay organisms are present and water is present at just above the water holding capacity of the compost. If desired, other media can be used, and the test can be conducted at water contents which are below, at, or above the water-holding capacity of the media.
In general, the integrity of the veneer is inversely related to the length of exposure to the decay promoting environment. The integrity of the veneer can be tested by applying a force to the veneer and noting whether or not the veneer breaks. Thus, if wood preservative agents are applied to the veneers, these veneers would be expected to withstand longer exposure to the environment without breaking compared to control veneers without breaking.
The force applied to the veneers is preferably a force which pulls the two ends in opposite directions. The force can be applied by the use of an instrument or manually. If there is significant decay the veneer will break, generally near the junction between the portion submerged in the decay accelerating medium and the portion exposed to air. If the force is applied manually, it is preferable that the same individual conduct the test at the various exposure time points.
The veneers were cut such that both late wood and early wood were present in each veneer. The following biocides were tested: dichlorophen, fenarimol, imazalil sulfate, and PHMB.
Test solutions were prepared and sets of veneers were dip treated such that there were 6 replicate veneers for each treatment under investigation. Additionally six veneers were dip treated in deionised water to act as water controls. […] Plastic containers (approximately 350×220 mm by at least 60 mm high) were part filled with John Innes Number 2 potting compost at a little above its water holding capacity. The veneers for a particular test were placed in six rows within a container such that approximately half the veneer was below the compost and half above. The veneers were placed in the compost such than those given a particular treatment were distributed throughout the container and were not grouped together. The containers, compost and veneers were weighed then incubated at about 30° C. and near 100% relative humidity in an incubator. Each week during the test the assembly was reweighed and deionised water added to bring it back to its original mass. After 3 weeks each veneer was examined in turn. It was held between the fingers at each end and pulled to see if it could be broken. If it could be pulled apart a failure was recorded. If the veneer was sound, this was recorded and the veneer was returned to its original position. After a further one week incubation all sound veneers were assessed again as described above, with the same person conducting the assessments.

[1] = Example 5, solutions in IMS (alcohol)
[2] = Example 6, solutions in IMS (alcohol), single biocide at 0.8%
[3] = Example 6, solutions in IMS (alcohol), single biocide at 1.6%
[4] = Example 1, single biocide at 0.8% in treatment solution, 6 replicate veneers
[5] = Example 8, solutions in IMS (alcohol), single biocide at 0.8%
[6] = Example 8, solutions in IMS (alcohol), single biocide at 1.6%
[7] = Example 7, solutions in acetone, single biocide at 0.8%
[8] = Example 7, solutions in acetone, single biocide at 1.6%
[9] = Example 4, solutions in acetone

1H-imidazole, 1-(2-(2,4-dichlorphenyl)-2-(2-propenyloxy)ethyl)-,sulfate [Imazalil Sulphate]
average time for failure to occur (Example 1, single biocide at 0.4% in treatment solution): 5.2 weeks | Half life for fungicide at 2% ai [1]: 7.83 weeks | Calculated half life [2]: 7.00 weeks | Calculated half life [3]: 8.00 weeks

OC(c1ccc(Cl)cc1)(c1cncnc1)c1ccccc1Cl (racemic) [Fenarimol, (±)-2,4′-dichloro-α-(pyrimidin-5-yl) benzhydryl alcohol]
average time for failure to occur [4]: ~7.2 weeks and 7.2 weeks | Half life for fungicide at 2% active ingredient (ai) (solutions in IMS (alcohol)): 7.33 weeks

OB(O)O [Boric acid]
Calculated half life [5]: 4.17 weeks | Calculated half life [6]: 4.50 weeks

N#Cc1c(Cl)c(Cl)c(Cl)c(C#N)c1Cl [Chlorothalonil, 2,4,5,6-tetrachloro-1,3-benzenedicarbonitrile]
Calculated half life [7]: 9.33 weeks | Calculated half life [8]: 12.33 weeks

CC(C1CC1)C(O)(Cn1cncn1)c1ccc(Cl)cc1 (stereo not drawn) [Cyproconazole, α-(4-chlorophenyl)-α-(1-cyclopropylethyl)-=1H-1,2,4-triazol-1-ethanol]
Half life for fungicide at 2% active ingredient (ai) (solutions in IMS (alcohol)): 6.67 weeks | Calculated half life [7]: 4.33 weeks | Calculated half life [8]: 4.50 weeks

CCCCCCCCCC[N+](C)(C)CCCCCCCCCC.[Cl-] [DDAC, didecyl dimethyl ammonium chloride]
average time for failure to occur, Quat Only (Example 2): 4.2 weeks | Half life for fungicide at 2% ai [1]: 5.50 weeks | Calculated half life [2]: 5.17 weeks | Calculated half life [3]: 6.67 weeks

Oc1ccc(Cl)cc1Cc1cc(Cl)ccc1O [Dichlorophen, 2,2′-methylenebis [4-chlorophenol]]
average time for failure to occur (Example 1, 0.6% dichlorophen alone): 9.5 weeks | average time for failure to occur (Example 2, 0.60% dichlorophen, no quat): 5.7 weeks | Half life for fungicide at 2% active ingredient (ai) (solutions in IMS (alcohol)): 15.67 weeks | Half life for fungicide at 2% ai [9]: 18.17 weeks | Half life for fungicide at 2% ai [1]: 17.00 weeks | Calculated half life [2]: 11.33 weeks | Calculated half life [3]: 14.50 weeks | Calculated half life [7]: 8.67 weeks | Calculated half life [8]: 10.83 weeks | Calculated half life [5]: 7.83 weeks | Calculated half life [6]: 11.67 weeks

CC(Cc1ccc(C(C)(C)C)cc1)CN1C[C@@H](C)O[C@@H](C)C1 (stereo partly drawn) [Fenpropimorph, cis-4-[3-[4-(1,1-dimethylethyl)phenyl]-2-methylpropyl]-=2,6-dimethylmorpholine]
Half life for fungicide at 2% active ingredient (ai) (solutions in IMS (alcohol)): 6.17 weeks | Calculated half life [7]: 3.67 weeks | Calculated half life [8]: 4.33 weeks

CCCC1COC(Cn2cncn2)(c2ccc(Cl)cc2Cl)O1 (stereo not drawn) [Propiconazole, 1-[[2-(2,4-dichlorophenyl)-4-propyl-1,3-dioxolan-2-yl]=methyl]-1H-1,2,4-triazole]
Half life for fungicide at 2% ai [9]: 6.33 weeks | Calculated half life [7]: 5.67 weeks | Calculated half life [8]: 6.00 weeks

COC(=O)N(OC)c1ccccc1COc1ccn(-c2ccc(Cl)cc2)n1 [Pyraclostrobin, methyl N-{2-[1-(4-chlorophenyl)-1H-pyrazol-3-yloxymethyl]phenyl}(N-methoxy)carbamate]
Half life for fungicide at 2% ai [1]: 5.67 weeks

CCCCCCCCn1sc(Cl)c(Cl)c1=O [RH 287, 4,5-dichloro-2-n-octyl-3(2H)-isothiazolone]
Calculated half life [7]: 10.00 weeks | Calculated half life [8]: 16.83 weeks

O=C(Nc1ccccc1)c1ccccc1O [Salicylanilide, 2-hydroxy-N-phenylbenzamide]
Half life for fungicide at 2% active ingredient (ai) (solutions in IMS (alcohol)): 14.00 weeks | Calculated half life [5]: 4.83 weeks | Calculated half life [6]: 5.83 weeks

CCCCCCCCCCCCN(CCCN)CCCN [Triameen, N,N-bis(3-aminopropyl) dodecylamine]
Half life for fungicide at 2% ai [1]: 5.50 weeks

CCCCCCCCCCCCCN1CC(C)OC(C)C1 (stereo not drawn) [Tridemorph, 4-alkyl-2,6-dimethylmorpholine]
Half life for fungicide at 2% active ingredient (ai) (solutions in IMS (alcohol)): 5.83 weeks

N,N-didecyl-N-methyl-poly(oxyethyl) ammonium propionate [Bardap 26]
average time for failure to occur, Quat Only (Example 2): 5.0 weeks | Calculated half life [2]: 5.17 weeks | Calculated half life [3]: 6.00 weeks

Poly(hexamethylenebiguanide) hydrochloride [PHMB]
average time for failure to occur [4]: 4.8 weeks | Calculated half life [5]: 5.00 weeks | Calculated half life [6]: 5.50 weeks

alkyl dimethyl benzyl ammonium chloride [BAC]
Half life for fungicide at 2% ai [1]: 5.00 weeks | Calculated half life [5]: 5.00 weeks | Calculated half life [6]: 5.00 weeks
